Tests used:
[1] = tested on: mRNA transcription in U2OS cells; experiment: Transcription level by nucleolin/fibrillarin colocalization; format: cell-based, human; conditions: 10, 50 or 100 nM, actinomycin D as control
Method: Human osteosarcoma U2OS cells were treated with 10, 50 or 100 nM lurbinectedin (Lurbi) for 6 hours. Thapsigargin (Thaps, 3 μM) was used as a positive control. The cells were fixed with 3.7% PFA and DNA was stained with 1 μM Hoechst 33342. Following the phosphorylation of the eukaryotic translation initiation factor 2 alpha (eIF2a) was assessed with phosphoneoepitope-specific antibody and was monitored by means of automated microscopy as an increase in cytoplasmic fluorescence intensity. (a,b) The level of transcription was measured in U2OS cell treated as above with Lurbi. The transcription inhibitor actinomycin D (ActD) was used as a control. The cells were fixed as above and following the colocalization of nucleolin and fibrillarin was assessed as an indicator for transcriptional activity (c,d) Scale bar equals 10 μm and bar charts depict mean values±SD of quadruplicate assessments (*p<0.01; *p<0.001, two-tailed Student's t test).
In a systematic screening campaign, the capacity of lurbinectedin to induce immunogenic cell death in cancer cells was assessed in human osteosarcoma U2OS cells stably expressing fluorescent biosensors for the detection of CALR-relocation (as a surrogate marker for CALR surface exposure), HMGB1 release and Type I IFN responses together with U2OS WT cells stained with the ATP-sensitive dye quinacrine. […]

MPA/DMBA-induced tumours = experiment: MPA/DMBA-induced breast cancer model; format: in vivo, C57BL/6 mice; conditions: palpable MPA/DMBA-induced tumours; systemic injection
Method: Medroxyprogesterone acetate (MPA) pellets (50 mg, 90-day release) were implanted subcutaneously into the interscapular area of immunocompetent C57BL/6 mice. Then the animals received 1 mg dimethylbenzantracene (DMBA) administered by oral gavage 6× during 7 weeks. When spontaneous tumours became palpable mice were randomly assigned to receive 0.14 mg/Kg lurbinectedin (Lurbi) alone or in combination with double immune checkpoint blockade with monoclonal antibodies targeting CTLA-4 and PD-1 at day 6, 9 and 12 post treatment (a). The tumour area and overall survival were measured regularly until ethical endpoints were reached (b,c,d). Data were analyzed with TumGrowth (https://github.com/kroemerlab). […]
Six- to eight-week-old female wild-type C57BL/6 and nu/nu mice were obtained from Envigo France (Huntingdon, UK) and were kept in the animal facility at the Gustave Roussy Campus Cancer in a specific pathogen-free and temperature-controlled environment with 12 h day, 12 h night cycles and received food and water ad libitum. […] When tumours became palpable, 0.18 mg/Kg lurbinectedin was injected sequentially once a week intravenously into the tail vein and animal well-being and tumour growth were monitored. […] Animals were monitored and tumour growth documented regularly until end-points were reached. […]

In the case of `COc1ccc2[nH]c3c(c2c1)CCN[C@]31CS[C@@H]2c3c(OC(C)=O)c(C)c4c(c3[C@H](COC1=O)N1[C@@H]2[C@H]2c3c(cc(C)c(OC)c3O)C[C@@H]([C@@H]1O)N2C)OCO4` [lurbinectedin], the “mRNA transcription (dissociation of nucleolin and fibrillarin)” value [1] is reported as “inhibited mRNA transcription at a level comparable to a known transcription-inhibitor”, the overall survival (MPA/DMBA-induced tumours) is reported as “increased” and the tumour growth (MPA/DMBA-induced tumours) is reported as “significantly reduced”.

Reference: patent publication US20250295656A1, “COMBINATION OF LURBINECTEDIN AND IMMUNE CHECKPOINT INHIBITORS” (priority 2020, published 2025)
